Patent US20170239239A1, “Method for Inducing a Sustained Immune Response” (Immune Therapeutics Inc., priority 2016, published 2017)

Key:
pleural mesothelioma = assay: Case report, stage 4 pleural mesothelioma; format: in vivo, human; conditions: person; 4.5 mg nightly, no chemotherapy; February 2009 and 2010
Experimental: Person diagnosed with stage 4 pleural mesothelioma in December of 2008 and patients after consult with two other doctors it was determined due to the state of the diseases and other health issues to watch the tumors and not do chemotherapy. Prognosis was 6 to 12 months. Patient started 4.5 mg nightly and received on other treatment but did change diet.

Rheumatoid Arthritis = assay: Case reports, Rheumatoid Arthritis; format: in vivo, human
Experimental: A person diagnosed with Rheumatoid Arthritis in 2006 and was being treated with methotrexate and plaquenil but patients continued with pain and fatigue.
person two diagnosed 5 years ago with RA was treated with Methotrexate 25 mg per week and Remicade […] every 6 weeks, the fatigue and pain continued, along with the inflammation and general weakness. Sleep disturbed nightly due to pain in my shoulders and hips. Patient felt their life was not acceptable and none of the immunosuppression drugs were helping. […] Within two weeks patient stopped even ibuprophen. Rheumatoid factor has gone from 127 to 66 in 4 months and has stayed stable. […] Occasionally patient has pain but it is easily controlled with a normal dosage of ibuprophen.
A person, diagnosed with RA in 1999 stayed very active until 2005 on a combination of Methotrexate and Prednisone but was have difficulty maintaining their business due to fatigue and severe joint pain with deformity of their hands and elbows. Patient was told to increase their does and start a second immunomodulating drug. Patient no longer wanted to continue with immunosuppression drug or steroids due to the side effects.

Hepatitis B = assay: Case report, Hepatitis B; format: in vivo, human
MS patients = assay: Retrospective chart review of MS patients receiving LDN; format: in vivo, human
Description: This study investigated the safety, tolerability, and benefits (fatigue, reduction) of LDN in patients with MS. It reviewed the number of patients who stopped taking LDN and if there were specific reasons for stopping the LDN. The frequency and variety of side effects that were specific to LDN use are reported. […] 1, 2005 and May 31, 2012. There were 215 MS patients having exposure to LDN during the time of this study. […] In addition to the assessment we review Brain MRIs and Spinal Cord MRIs that were obtained as part of the clinical status of the patient and standard of care.
It reviewed the number of patients who stopped taking IMMEDIATE RELEASE NALTREXONE (LDN) and if there were specific reasons for stopping the IMMEDIATE RELEASE NALTREXONE (LDN). […] 1, 2005 and May 31, 2012. […] In addition to the assessment we review Brain Mills and Spinal Cord MRIs that were obtained as part of the clinical status of the patient and standard of care.

Shingles = assay: Case report, shingles; format: in vivo, human; conditions: person; 4.5 mg nightly since 2013
Experimental: A person diagnosed with Shingles in 2010 over 18 months had 8 major outbreaks, and was treated with acyclovir, and valacyclovir, as the outbreaks continued they prescribed Lidocaine patches and pain medications.

autism [1] = assay: 10 studies of naltrexone in 155 children with autism; format: in vivo, human
Description: 155 children participated in 10 studies; 27 received placebo.

colon cancer = assay: Case report, stage 4 colon cancer; format: in vivo, human
Description: A person diagnosed with stage 4-colon cancer, 2007 which had spread to their lungs and liver, they removed 40% of their colon and began a round of chemotherapy and three surgeries removed 40% of their colon, half is their right lung and 75% of their liver. During the next 18 months received 47 weeks of chemotherapy (a combination of 4 chemo drugs at once).

Follicular Lymphoma (FL) = conditions: 1 year after last CT/PET imaging; cited from earlier work
[2] = normal volunteers, HIV positive, multiple sclerosis, autism, fibromyalgia, diabetes, and cancer patients; cited from earlier work
asymptomatic HIV+ adults = assay: Single blind 90 day randomized bridging clinical trial in Nigeria; format: in vivo, human
Experimental: The differences in CD4 count, CD4%, hemoglobin, viral load, interferon alpha, and standard chemistry panel were measured between treated versus non-treated groups four times throughout the study. […] When used alone, it appears to slow and/or stop the progression of the disease.

[3] = system: patients with hematologic malignancies; conditions: cited from earlier work
Autoimmune Hepatitis = assay: Case report, Autoimmune Hepatitis Type 1; format: in vivo, human; conditions: first two weeks
prostate cancer = assay: Case report, stage 3 prostate cancer; format: in vivo, human; conditions: person; 4.5 mg nightly with Docetaxel
Description: person was diagnosed with stage 3 prostate cancer which they were originally treated for 5 years before began 3 rounds of Docetaxel (Taxotere®).

autism [4] = assay: Case reports, autism; conditions: child
[5] = of the 128 that received naltrexone

O=C1CC[C@@]2(O)[C@H]3Cc4ccc(O)c5c4[C@@]2(CCN3CC2CC2)[C@H]1O5 [Immediate release naltrexone, naltrexone]
CAT scans (pleural mesothelioma): no measurable growth of tumors
Fatigue (Rheumatoid Arthritis; person two): gone
Rheumatoid factor (Rheumatoid Arthritis; person two, 4.5 mg at bedtime, from 127 in 4 months): 66
disease course (Rheumatoid Arthritis; person, 4.5 mg with multi-part protocol, 7 years later): not advanced
use of other medication (Rheumatoid Arthritis; person, titrated to 4.5 mg, March of 2010): Successfully discontinued methotrexate
ALT/AST (Hepatitis B; child, 1 mg): decreased to normal
viral load (Hepatitis B; child, 1 mg, within one month, from 59.2 million): 53,000
serology (Hepatitis B; within 7 months): Sero-conversion to negative antigens and positive antibodies
viral load (Hepatitis B; within 7 months): 551
quality of life surveys: patients improved (MS patients; human, in vivo): 83 patients
quality of life surveys: patients stable (MS patients; human, in vivo): 92 patients
quality of life surveys: patients worse (MS patients; human, in vivo): 9
MRI scans showed improvement (MS patients; of 215 patients): 14
MRI scans stable (MS patients; of 215 patients): 113
MRI scans slightly worse (MS patients; of 215 patients, new but inactive lesion(s)): 28
quality of life (MS patients; over a long period of time): improvement
shingles outbreaks (Shingles): not had a single outbreak
side effects (autism [1]; in vivo): mild
tolerability (autism [1]; in vivo): generally well tolerated
children with statistically significant improvement in irritability and hyperactivity (autism [1]; [5]): 77%
children with statistically significant improvement in irritability and hyperactivity, number (autism [1]; [5]): 98
completion of chemotherapy protocol (colon cancer; person, 4.5 mg nightly with chemotherapy): without any major side effects
scans every six months (colon cancer; until June of 2015): cancer free
disease symptoms at follow-up (Follicular Lymphoma (FL)): remains asymptomatic
toxicity [2]: no major toxicity
improvement in CD4 count, increase (asymptomatic HIV+ adults; about 4.5 mg single oral dose with ART, at 3 months, vs control group): 44%
BMI (asymptomatic HIV+ adults; about 4.5 mg with ART): increase
opportunistic infections (asymptomatic HIV+ adults; about 4.5 mg with ART): reduction
Improvement in CD4% (asymptomatic HIV+ adults; about 4.5 mg with ART, throughout treatment): statistically significant
EORTC QLQ-C30 social functioning vs placebo ([3]; 3 mg capsules daily plus routine treatment, one month follow-up (p<0.05)): better condition
EORTC QLQ-C30 social functioning, role functioning, nausea and vomiting and appetite loss vs placebo ([3]; 3 mg daily, 3-month follow-up (all p-values<0.05)): better
EORTC QLQ-C30 physical, social, role functioning, global quality of life, nausea and vomiting and appetite loss vs placebo ([3]; 3 mg daily, 5-month follow-up): significantly better
blood laboratory tests ([3]; 3 mg daily): no changes
white blood cell, red blood cell and plate count ([3]; 3 mg daily): remained stable
side effects (Autoimmune Hepatitis): vivid dreams and mild indigestion
blood work (prostate cancer): stayed stable
overall quality of life (prostate cancer): much better
language skills (autism [4]): improved
side effect (autism [4]): a little constipation
illness (autism [4]; continually sick before): has not been sick since starting
hyperactivity (autism [4]; 3 mg): increased for the first three weeks
social behaviors (autism [4]; 3 mg, over the next months): skyrocketed
